Assays:
HIV-integrase = target: T1, HIV-integrase (Human immunodeficiency virus type 1 group M subtype B, UniProt P12497); assay: HIV-Integrase Inhibition Activity (SPA strand transfer assay); type: biochemical; conditions: recombinant integrase, SPA beads, P33 labeled target DNA; read-out: Activity (IC50 class, HIV-integrase inhibition)
T1 construct: Recombinant integrase (0.26 ng) was incubated with the beads
How it was run: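 Biotinylated substrate DNA (5 pmol) on streptavidin SPA beads was preloaded with 0.26 ng recombinant integrase for 90 min at 37 °C, then washed. Inhibitors and 0.1 fmol 33P-labelled target DNA were added; EDTA (10 mM final) stopped the reaction. Strand-transfer integration was read as bead-associated CPM; IC50 values are grouped into activity bands.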

[1] = tested on: recombinant NL-Rluc virus; assay: Inhibition of HIV replication (NL-Rluc virus, luciferase); type: cell-based; conditions: NL-Rluc pseudotype virus; serum condition of tabulated values not stated (10% FBS, 15 mg/ml HSA/10% FBS or 40% human serum/5% FBS); read-out: Activity (EC50 class, inhibition of HIV replication)

Cc1ncc(CNC(=O)c2nc3n(c(=O)c2O)CCOC3(C)C)s1 [Example 85, 3-Hydroxy-9,9-dimethyl-N-((2-methylthiazol-5-yl)methyl)-4-oxo-4,6,7,9-tetrahydropyrimido[2,1-c][1,4]oxazine-2-carboxamide]
IC50 (HIV-integrase): 2 to 100 nM | melting point: 245 °C

Pyrimido[2,1-c][1,4]oxazine-2- carboxamide, 4,6,7,9-tetrahydro-3- hydroxy-9,9-dimethyl-N-[(1- methyl-1H-pyrazol-3-yl)methyl]-4- oxo- [Example 72]
IC50 (HIV-integrase): 2 to 100 nM | EC50 [1]: 100 to 1000 nM

Pyrimido[2,1-c][1,4]oxazine-2- carboxamide, 4,6,7,9-tetrahydro-3- hydroxy-9,9-dimethyl-N-[[5- methyl-2-(trifluoromethyl)-3- furanyl]methy]-4-oxo- [Example 42]
IC50 (HIV-integrase): 2 to 100 nM | EC50 [1]: 100 to 1000 nM

Pyrimido[2,1-c][1,4]oxazine-2- carboxamide, N-(1,2-benzisoxazol- 3-ylmethyl)-4,6,7,9-tetrahydro-3- hydroxy-9,9-dimethyl-4-oxo- [Example 59]
IC50 (HIV-integrase): 2 to 100 nM | EC50 [1]: 100 to 1000 nM

Pyrimido[2,1-c][1,4]oxazine-2- carboxamide, N-(2- benzofuranylmethyl)-4,6,7,9- tetrahydro-3-hydroxy-9,9- dimethyl-4-oxo- [Example 56]
IC50 (HIV-integrase): 2 to 100 nM | EC50 [1]: 3 to 100 nM

Pyrimido[2,1-c][1,4]oxazine-2- carboxamide, N-(benzo[b]thien-3- ylmethyl)-4,6,7,9-tetrahydro-3- hydroxy-9,9-dimethyl-4-oxo- [Example 40]
IC50 (HIV-integrase): 2 to 100 nM | EC50 [1]: 100 to 1000 nM

Pyrimido[2,1-c][1,4]oxazine-2- carboxamide, N-[(1-ethyl-1H- pyrazol-3-yl)methyl]-4,6,7,9- tetrahydro-3-hydroxy-9,9- dimethyl-4-oxo- [Example 67]
IC50 (HIV-integrase): 2 to 100 nM | EC50 [1]: 100 to 1000 nM

Pyrimido[2,1-c][1,4]oxazine-2- carboxamide, N-[(1-ethyl-5- methyl-1H-pyrazol-4-yl)methyl]- 4,6,7,9-tetrahydro-3-hydroxy-9,9- dimethyl-4-oxo- [Example 64]
IC50 (HIV-integrase): 100 to 1000 nM

Pyrimido[2,1-c][1,4]oxazine-2- carboxamide, N-[(2,5-dimethyl-3- furanyl)methyl]-4,6,7,9- tetrahydro-3-hydroxy-9,9- dimethyl-4-oxo- [Example 44]
IC50 (HIV-integrase): 2 to 100 nM | EC50 [1]: 3 to 100 nM

Pyrimido[2,1-c][1,4]oxazine-2- carboxamide, N-[(2-bromo-3- thienyl)methy]-4,6,7,9-tetrahydro- 3-hydroxy-9,9-dimethyl-4-oxo- [Example 41]
IC50 (HIV-integrase): 2 to 100 nM | EC50 [1]: 100 to 1000 nM

Pyrimido[2,1-c][1,4]oxazine-2- carboxamide, N-[(4-bromo-1- ethyl-1H-pyrazol-5-yl)methyl]- 4,6,7,9-tetrahydro-3-hydroxy-9,9- dimethyl-4-oxo- [Example 73]
IC50 (HIV-integrase): ≥ 1000 nM

Pyrimido[2,1-c][1,4]oxazine-2- carboxamide, N-[(4-chloro-1- ethyl-1H-pyrazol-3-yl)methyl]- 4,6,7,9-tetrahydro-3-hydroxy-9,9- dimethyl-4-oxo- [Example 70]
IC50 (HIV-integrase): 2 to 100 nM | EC50 [1]: > 1000 nM

Pyrimido[2,1-c][1,4]oxazine-2- carboxamide, N-[(4-chloro-1- ethyl-1H-pyrazol-5-yl)methyl]- 4,6,7,9-tetrahydro-3-hydroxy-9,9- dimethyl-4-oxo- [Example 71]
IC50 (HIV-integrase): 100 to 1000 nM

Pyrimido[2,1-c][1,4]oxazine-2- carboxamide, N-[(4-chloro-3- methyl-5-isoxazolyl)methyl]- 4,6,7,9-tetrahydro-3-hydroxy-9,9- dimethyl-4-oxo- [Example 54]
IC50 (HIV-integrase): 100 to 1000 nM

Pyrimido[2,1-c][1,4]oxazine-2- carboxamide, N-[(5,6-dichloro- 1H-benzimidazol-2-yl)methyl]- 4,6,7,9-tetrahydro-3-hydroxy-9,9- dimethyl-4-oxo- [Example 50]
IC50 (HIV-integrase): ≥ 1000 nM

Pyrimido[2,1-c][1,4]oxazine-2- carboxamide, N-[(5-chloro-1H- indol-2-yl)methyl]-4,6,7,9- tetrahydro-3-hydroxy-9,9- dimethyl-4-oxo- [Example 62]
IC50 (HIV-integrase): 100 to 1000 nM

Pyrimido[2,1-c][1,4]oxazine-2- carboxamide, N-[[3-(4- chlorophenyl)-5- isoxazolyl]methyl]-4,6,7,9- tetrahydro-3-hydroxy-9,9- dimethyl-4-oxo- [Example 45]
IC50 (HIV-integrase): ≥ 1000 nM
